According to ChEMBL document CHEMBL5244222, “A comprehensive review on xanthone derivatives as α-glucosidase inhibitors” (Eur J Med Chem, 2018):
In brackets after ≈: the same amount, converted by molar mass.

How the values were obtained:
[1] = Inhibition of rice alpha-glucosidase using p-nitrophenyl-alpha-D-glucopyranoside as substrate preincubated for 15 mins followed by substrate addition and measured after 90 mins by spectroscopic analysis
[2] = Inhibition of rat intestine alpha-glucosidase using p-nitrophenyl-alpha-D-glucopyranoside as substrate preincubated for 10 mins followed by substrate addition and measured after 5 mins by spectroscopic analysis; format: tissue-based
[3] = Inhibition of rat jejunum isomaltase; format: tissue-based
Rattus norvegicus [4] = species: Rattus norvegicus; assay: Inhibition of rat intestine alpha-glucosidase using MUG as substrate at 100 uM preincubated for 15 mins followed by substrate addition and measured after 30 mins by fluorescence microplate reader analysis; format: tissue-based; conditions: time 45.0 min
[5] = Inhibition of rat jejunum sucrase; format: tissue-based
Rattus norvegicus [6] = species: Rattus norvegicus; assay: Inhibition of rat jejunum maltase at 300 ug/ml; format: tissue-based; conditions: dose 300.0 µg/ml
Alpha glucosidase [7] = molecular target: T1, Alpha glucosidase (Homo sapiens, UniProt O43451+P10253+P14410+Q2M2H8); assay: Inhibition of alpha-glucosidase (unknown origin) using PNPG as substrate incubated for 30 mins by absorbance assay; format: protein assay
Alpha-glucosidase [8] = molecular target: T2, Alpha-glucosidase (Saccharomyces cerevisiae S288c, UniProt P53341+P38158+P07265); assay: Inhibition of Saccharomyces cerevisiae alpha-glucosidase using PNPG as substrate incubated for 30 mins by spectrophotometric assay; format: protein assay
Alpha-glucosidase [9] = molecular target: T2, Alpha-glucosidase; assay: Mixed-type inhibition of Saccharomyces cerevisiae alpha-glucosidase using PNPG as substrate incubated for 30 mins by Lineweaver-Burk double-reciprocal plot analysis; format: protein assay
Alpha-glucosidase [10] = molecular target: T2, Alpha-glucosidase; assay: Inhibition of Saccharomyces cerevisiae alpha-glucosidase using maltose as substrate incubated for 30 mins by spectrophotometric assay; format: protein assay
Alpha glucosidase [11] = molecular target: T1, Alpha glucosidase; assay: Inhibition of alpha-glucosidase (unknown origin) at 100 uM; format: protein assay
Alpha-glucosidase [12] = molecular target: T2, Alpha-glucosidase; assay: Inhibition of yeast alpha-glucosidase assessed as release of p-nitrophenol using PNPG as substrate preincubated for 10 mins followed by substrate addition and measured after 35 mins by microplate photometer analysis; format: protein assay
Alpha-glucosidase [13] = molecular target: T2, Alpha-glucosidase; assay: Inhibition of Saccharomyces cerevisiae alpha-glucosidase assessed as release of p-nitrophenol using pNPG as substrate preincubated for 5 mins followed by substrate addition and measured after 30 mins by absorbance assay; format: protein assay
Alpha-glucosidase [14] = molecular target: T2, Alpha-glucosidase; assay: Inhibition of Saccharomyces cerevisiae alpha-glucosidase assessed as release of p-nitrophenol using pNPG as substrate preincubated for 15 mins followed by substrate addition and measured after 15 mins by spectrophotometric analysis; format: protein assay
Alpha-glucosidase [15] = molecular target: T2, Alpha-glucosidase; assay: Inhibition of Saccharomyces cerevisiae alpha-glucosidase assessed as release of p-nitrophenol using pNPG as substrate preincubated for 15 mins followed by substrate addition and measured after 30 mins by spectrophotometric analysis; format: protein assay
Alpha-glucosidase [16] = molecular target: T2, Alpha-glucosidase; assay: Inhibition of yeast alpha-glucosidase using p-nitrophenyl-alpha-D-glucopyranoside as substrate incubated for 30 mins by spectrophotometric assay; format: protein assay
Alpha-glucosidase [17] = molecular target: T2, Alpha-glucosidase; assay: Inhibition of Saccharomyces cerevisiae alpha-glucosidase assessed as release of p-nitrophenol using pNPG as substrate preincubated for 15 mins followed by substrate addition and measured after 15 mins by plate reader analysis; format: protein assay
Alpha-glucosidase [18] = molecular target: T2, Alpha-glucosidase; assay: Inhibition of Saccharomyces cerevisiae alpha-glucosidase using PNPG as substrate preincubated for 15 mins followed by substrate addition and measured after 30 mins by spectrophotometric assay; format: protein assay
Alpha glucosidase [19] = molecular target: T1, Alpha glucosidase; assay: Inhibition of alpha-glucosidase (unknown origin) at 40 uM; format: protein assay
Rattus norvegicus [20] = species: Rattus norvegicus; assay: Inhibition of rat intestine alpha-glucosidase using MUG as substrate at 65 uM preincubated for 15 mins followed by substrate addition and measured after 30 mins by fluorescence microplate reader analysis; format: tissue-based; conditions: time 45.0 min

O=c1c2cc(O)c(O)cc2oc2cc(O)c([C@H]3O[C@@H](CO)[C@H](O)[C@@H](O)[C@@H]3O)c(O)c12
IC50 [1]: 96.1 µg/mL (≈ 228 µM) | IC50 [2]: 52200 µM | IC50 [3]: 216 µg/mL (≈ 511 µM) | inhibition (Rattus norvegicus [4]): 53% | IC50 [5]: 87 µg/mL (≈ 206 µM) | inhibition (Rattus norvegicus [6]): 42%

COc1cc(O)c2c(=O)c3c(OC)c(O)c(O)cc3oc2c1
IC50 (Alpha glucosidase [7]): 44.5 µM

C=C(C)/C=C/c1c(O)cc2oc3cc(O)c(OC)c(CC(=O)C(=C)C)c3c(=O)c2c1O
IC50 (Alpha-glucosidase [8]): 9.8 µM | Ki (Alpha-glucosidase [9]): 8.1 µM | IC50 (Alpha-glucosidase [10]): 85.7 µM

O=c1c2c(O)cc(O)cc2oc2cc(O)cc(O)c12
IC50 (Alpha glucosidase [7]): 39 µM

COc1cc(OC/C=C(\C)CC=C(C)C)c2c(=O)c3c(O)ccc(OC)c3oc2c1
inhibition (Alpha glucosidase [11]): 30.9%

C=Cc1cc2oc3cc(O)cc(O)c3c(=O)c2c(OC)c1O
IC50 (Alpha glucosidase [7]): 26.3 µM

C=C(C)/C=C/c1c(O)cc2oc3cc(O)c(O)c(C/C=C(\C)CC=C(C)C)c3c(=O)c2c1O
IC50 (Alpha-glucosidase [12]): 1.7 µM

COc1cc(O)c2c(=O)c3c(C/C=C(\C)CCC=C(C)C)c(OC)c(O)cc3oc2c1
IC50 (Alpha-glucosidase [12]): 12.4 µM

C=C(C)/C=C/c1cc(O)c(O)c2oc3c(C/C=C(/C)CC=C(C)C)c(OC)cc(O)c3c(=O)c12
IC50 (Alpha-glucosidase [12]): 7.8 µM

CC(C)=CC/C(C)=C/COc1cc(O)c2c(=O)c3ccccc3oc2c1
inhibition (Alpha glucosidase [11]): 43.1%

C=CC(C)(C)c1c(O)ccc2c(=O)c3c(O)c(CC=C(C)C)c(OC)c(O)c3oc12
IC50 (Alpha-glucosidase [13]): 8.9 µM

C=C(C)/C=C/c1c(O)cc2oc3cc(O)c(O)c(/C=C/C(=C)C)c3c(=O)c2c1O
IC50 (Alpha-glucosidase [8]): 1.5 µM | Ki (Alpha-glucosidase [9]): 1.4 µM | IC50 (Alpha-glucosidase [10]): 17.5 µM

COC(=O)c1c(O)c(O)cc2oc3c(Cl)c(C)c(Cl)c(O)c3c(=O)c12
IC50 (Alpha-glucosidase [14]): 40 µM

C=C(C)/C=C/c1c(O)cc(O)c2c(=O)c3c(C/C=C(/C)CC=C(C)C)c(OC)c(O)cc3oc12
IC50 (Alpha-glucosidase [12]): 14.1 µM

COC(=O)c1cc(O)cc2oc3cc(C)cc(O)c3c(=O)c12
IC50 (Alpha-glucosidase [15]): 2980 µM

C=C(C)/C=C/c1c(O)cc2oc3c(/C=C/C(=C)C)c(O)c(OC)cc3c(=O)c2c1O
IC50 (Alpha-glucosidase [12]): 53.5 µM

COc1c(O)cc2oc3cc(O)c(C/C=C(\C)CO)c(O)c3c(=O)c2c1C/C=C(/C)CC=C(C)C
IC50 (Alpha-glucosidase [12]): 28 µM | IC50 (Alpha-glucosidase [16]): 168.7 µM

C=C(C)/C=C/c1c(O)cc2oc3cc(O)c(OC)c(C/C=C(\C)CC=C(C)C)c3c(=O)c2c1O
IC50 (Alpha-glucosidase [12]): 10.7 µM | IC50 (Alpha-glucosidase [16]): 20.7 µM

COc1c(O)cc2oc3ccc(O)cc3c(=O)c2c1O
IC50 (Alpha-glucosidase [17]): 7.6 µg/mL (≈ 27.7 µM)

C=C(C)/C=C/c1c(O)c(CC=C(C)C)c2oc3c(O)ccc(O)c3c(=O)c2c1O
IC50 (Alpha-glucosidase [8]): 10.8 µM | IC50 (Alpha-glucosidase [18]): 84 µM | Ki (Alpha-glucosidase [9]): 8.5 µM | IC50 (Alpha-glucosidase [10]): 37.7 µM

COc1cc(OCC=C(C)C)c2c(=O)c3c(O)ccc(OC)c3oc2c1
inhibition (Alpha glucosidase [11]): 42.1%

C[C@H]1O[C@H](O[C@H]2[C@H](O)[C@@H](O)[C@@H](O[C@H]3[C@H](O)[C@@H](O)C(O)O[C@@H]3CO)O[C@@H]2CO)[C@H](O)[C@@H](O)[C@@H]1N[C@H]1C=C(CO)[C@@H](O)[C@H](O)[C@H]1O (stereo not given in full) [ACARBOSE]
IC50 [1]: 2.39 µg/mL (≈ 3.7 µM) | IC50 [2]: 1820 µM | inhibition (Alpha glucosidase [19]): 5.4% | inhibition (Rattus norvegicus [20]): 50%

COc1c(O)cc2oc3cc(O)c(C/C=C(\C)COC(C)=O)c(O)c3c(=O)c2c1C/C=C(/C)CC=C(C)C
IC50 (Alpha-glucosidase [12]): 70.3 µM | IC50 (Alpha-glucosidase [16]): 18.2 µM

COc1ccc2oc3ccc(O)cc3c(=O)c2c1
IC50 (Alpha-glucosidase [17]): 77.3 µg/mL (≈ 319 µM)

C=C(C)/C=C/c1c(OC)cc2oc3cc(O)c(OC)c(/C=C/C(=C)C)c3c(=O)c2c1O
IC50 (Alpha-glucosidase [8]): 14.4 µM | Ki (Alpha-glucosidase [9]): 14.8 µM | IC50 (Alpha-glucosidase [10]): 192 µM
